Data: patent publication US20240287046A1, “COMPOUNDS AND RADIOLIGANDS FOR TARGETING NEUROTENSIN RECEPTOR AND USES THEREOF” (Full-Life Technologies HK Limited, priority 2022, published 2024)

Tests used:
[1] = test system: ASPC-1 tumor-bearing mice; assay: Biodistribution of radionuclide labeled complexes in ASPC-1 tumor-bearing mice; format: in vivo, BALB/c nude mice
Procedure, shortened: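 Radiolabeled compound (~30-50 μCi, ~1.11-1.85 MBq, specific activity 30-250 μCi/nmol) was injected i.v. via tail vein into nude mice carrying 0.05-0.50 g subcutaneous NTSR-1-positive human tumors. At set times, tissues were collected, weighed and γ-counted; % ID and % ID/g were calculated.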

[2] = test system: ASPC-1 tumor-bearing mice; assay: SPECT/CT imaging of ^177Lu-labeled complexes; format: in vivo; conditions: over 72 hours
Procedure: ASPC-1 tumor-bearing mice were IV-injected with about 120 μCi of ^177Lu-labeled complexes, then anesthetized under 2% isoflurane/oxygen gas and placed on the scanner. SPECT/CT images were acquired in three bed positions for 30 min using a MILabs SPECT scanner. Whole-body SPECT images were acquired at 1 h, 4 h, 24 and 72 h after injecting the radiotracers.

HT-29 tumor-bearing mice = assay: Biodistribution of radionuclide labeled complexes in HT-29 tumor-bearing mice; format: in vivo, BALB/c nude mice
Procedure: The BALB/c nude mice (Charles River, Beijing) were utilized to establish the xenografted model for biodistribution study. All animal care and experimental procedure were performed by following the animal protocols approved by the ethics committee of China Institute of Radiation Protection.
Briefly, each mouse was inoculated with approximately 4×10^6 ASPC-1 cells (human pancreatic cancer cell line) or HT-29 cells (human colorectal adenocarcinoma cell line) expressing human NTSR-1 by subcutaneous injection at rear flank. After inoculation, the xenografted tumors were allowed to grow for ˜2-4 weeks till the tumor weight reached to about 0.05 to 0.50 g (0.20 g in average).
Biodistribution studies were performed by administrating the radionuclide labeled test compound at a dose of ˜30-50 μCi (100 μL in 0.9% NaCl, ˜1.11-1.85 MBq, with specific activity 30-250 μCi/nmol) to each animal through tail vein injection.
At different time points after the administration, the mice treated with each compound were euthanized. The tissues and organs of the animals in each group were collected, excised, weighed, and analyzed in a PerkinElmer 2480 WIZARD2γ counter, and the percent injected dose (% ID) and % ID/g of each organ or tissue were calculated.

COc1cccc(OC)c1-c1cc(C(=O)NC2(C(=O)O)C3CC4CC(C3)CC2C4)nn1-c1ccc(NC(=O)CCCN(C)CCCN(C)C(=O)CN2CCN(CC(=O)[O-])CCN(CC(=O)[O-])CCN(CC(=O)[O-])CC2)cc1C(C)C.[177Lu+3] (stereo not shown) [^177Lu-I-5]
tumor AUC over 72 hours compared to ^177Lu—C2 [1]: significantly higher tumor AUC | % ID/g (4 h) Blood ([1]; Blood, 4 h): 15.51 ± 0.77 % ID/g | % ID/g (24 h) Blood ([1]; Blood, 24 h): 0.09 ± 0.01 % ID/g | % ID/g (72 h) Blood ([1]; Blood, 72 h): 0.02 ± 0 % ID/g | % ID/g (4 h) Femur ([1]; Femur, 4 h): 2.21 ± 0.63 % ID/g | % ID/g (24 h) Femur ([1]; Femur, 24 h): 0.38 ± 0.23 % ID/g | % ID/g (72 h) Femur ([1]; Femur, 72 h): 0.17 ± 0.09 % ID/g | % ID/g (4 h) Heart ([1]; Heart, 4 h): 2.82 ± 1.88 % ID/g | % ID/g (24 h) Heart ([1]; Heart, 24 h): 2.18 ± 2.71 % ID/g | % ID/g (72 h) Heart ([1]; Heart, 72 h): 0.15 ± 0.13 % ID/g | % ID/g (4 h) Intestine ([1]; Intestine, 4 h): 1.81 ± 0.87 % ID/g | % ID/g (24 h) Intestine ([1]; Intestine, 24 h): 0.82 ± 0.31 % ID/g | % ID/g (72 h) Intestine ([1]; Intestine, 72 h): 0.51 ± 0.04 % ID/g | % ID/g (4 h) Kidney ([1]; Kidney, 4 h): 4.57 ± 2.28 % ID/g | % ID/g (24 h) Kidney ([1]; Kidney, 24 h): 1.37 ± 0.17 % ID/g | % ID/g (72 h) Kidney ([1]; Kidney, 72 h): 1.29 ± 0.49 % ID/g | % ID/g (4 h) Liver ([1]; Liver, 4 h): 3.87 ± 2.36 % ID/g | % ID/g (24 h) Liver ([1]; Liver, 24 h): 1.27 ± 0.29 % ID/g | % ID/g (72 h) Liver ([1]; Liver, 72 h): 0.96 ± 0.07 % ID/g | % ID/g (4 h) Lung ([1]; Lung, 4 h): 1.841 ± 0.07 % ID/g | % ID/g (24 h) Lung ([1]; Lung, 24 h): 0.33 ± 0.06 % ID/g | % ID/g (72 h) Lung ([1]; Lung, 72 h): 0.23 ± 0.07 % ID/g | % ID/g (4 h) Muscle ([1]; Muscle, 4 h): 1.29 ± 0.37 % ID/g | % ID/g (24 h) Muscle ([1]; Muscle, 24 h): 0.17 ± 0.08 % ID/g | % ID/g (72 h) Muscle ([1]; Muscle, 72 h): 0.05 ± 0.01 % ID/g | % ID/g (4 h) Pancreas ([1]; Pancreas, 4 h): 1.57 ± 0.5 % ID/g | % ID/g (24 h) Pancreas ([1]; Pancreas, 24 h): 0.3 ± 0.24 % ID/g | % ID/g (72 h) Pancreas ([1]; Pancreas, 72 h): 0.1 ± 0.04 % ID/g | % ID/g (4 h) Spleen ([1]; Spleen, 4 h): 2.39 ± 1.4 % ID/g | % ID/g (24 h) Spleen ([1]; Spleen, 24 h): 0.63 ± 0.05 % ID/g | % ID/g (72 h) Spleen ([1]; Spleen, 72 h): 0.34 ± 0.04 % ID/g | % ID/g (4 h) Stomach ([1]; Stomach, 4 h): 3.52 ± 0.4 % ID/g | % ID/g (24 h) Stomach ([1]; Stomach, 24 h): 0.28 ± 0.2 % ID/g | % ID/g (72 h) Stomach ([1]; Stomach, 72 h): 0.15 ± 0.05 % ID/g | % ID/g (4 h) Tumor ([1]; Tumor, 4 h): 27.56 ± 12.51 % ID/g | % ID/g (24 h) Tumor ([1]; Tumor, 24 h): 36.67 ± 18.25 % ID/g | % ID/g (72 h) Tumor ([1]; Tumor, 72 h): 12.83 ± 4.23 % ID/g | ratio of tumor AUC verse normal organ AUC ([1]; compared to ^177Lu—C2): significantly improved | clearance from other organs or tissues (SPECT/CT) [2]: rapid clearance | retention in tumors (SPECT/CT) [2]: sustained retention in tumors | % ID/g (1 h) Blood (HT-29 tumor-bearing mice; Blood, 1 h): 20.4 ± 1.06 % ID/g | % ID/g (4 h) Blood (HT-29 tumor-bearing mice; Blood, 4 h): 9.07 ± 1.42 % ID/g | % ID/g (24 h) Blood (HT-29 tumor-bearing mice; Blood, 24 h): 0.07 ± 0.02 % ID/g | % ID/g (72 h) Blood (HT-29 tumor-bearing mice; Blood, 72 h): 0.09 ± 0.07 % ID/g | % ID/g (120 h) Blood (HT-29 tumor-bearing mice; Blood, 120 h): 0.01 ± 0 % ID/g | % ID/g (1 h) Femur (HT-29 tumor-bearing mice; Femur, 1 h): 1.84 ± 1.19 % ID/g | % ID/g (4 h) Femur (HT-29 tumor-bearing mice; Femur, 4 h): 0.99 ± 0.18 % ID/g | % ID/g (24 h) Femur (HT-29 tumor-bearing mice; Femur, 24 h): 0.29 ± 0.1 % ID/g | % ID/g (72 h) Femur (HT-29 tumor-bearing mice; Femur, 72 h): 0.73 ± 0.82 % ID/g | % ID/g (120 h) Femur (HT-29 tumor-bearing mice; Femur, 120 h): 0.13 ± 0.05 % ID/g | % ID/g (1 h) Heart (HT-29 tumor-bearing mice; Heart, 1 h): 5.76 ± 1.66 % ID/g | % ID/g (4 h) Heart (HT-29 tumor-bearing mice; Heart, 4 h): 3.15 ± 0.43 % ID/g | % ID/g (24 h) Heart (HT-29 tumor-bearing mice; Heart, 24 h): 0.31 ± 0.07 % ID/g | % ID/g (72 h) Heart (HT-29 tumor-bearing mice; Heart, 72 h): 0.89 ± 0.56 % ID/g | % ID/g (120 h) Heart (HT-29 tumor-bearing mice; Heart, 120 h): 0.13 ± 0.02 % ID/g | % ID/g (1 h) Intestine (HT-29 tumor-bearing mice; Intestine, 1 h): 2.59 ± 0.76 % ID/g | % ID/g (4 h) Intestine (HT-29 tumor-bearing mice; Intestine, 4 h): 1.7 ± 0.53 % ID/g | % ID/g (24 h) Intestine (HT-29 tumor-bearing mice; Intestine, 24 h): 0.7 ± 0.39 % ID/g | % ID/g (72 h) Intestine (HT-29 tumor-bearing mice; Intestine, 72 h): 1.33 ± 0.88 % ID/g | % ID/g (120 h) Intestine (HT-29 tumor-bearing mice; Intestine, 120 h): 0.17 ± 0.06 % ID/g | % ID/g (1 h) Kidney (HT-29 tumor-bearing mice; Kidney, 1 h): 4.34 ± 2.82 % ID/g | % ID/g (4 h) Kidney (HT-29 tumor-bearing mice; Kidney, 4 h): 3.22 ± 1.54 % ID/g | % ID/g (24 h) Kidney (HT-29 tumor-bearing mice; Kidney, 24 h): 2.61 ± 0.72 % ID/g | % ID/g (72 h) Kidney (HT-29 tumor-bearing mice; Kidney, 72 h): 3.55 ± 2.21 % ID/g | % ID/g (120 h) Kidney (HT-29 tumor-bearing mice; Kidney, 120 h): 0.81 ± 0.23 % ID/g | % ID/g (1 h) Liver (HT-29 tumor-bearing mice; Liver, 1 h): 5.26 ± 1.02 % ID/g | % ID/g (4 h) Liver (HT-29 tumor-bearing mice; Liver, 4 h): 4.41 ± 1.88 % ID/g | % ID/g (24 h) Liver (HT-29 tumor-bearing mice; Liver, 24 h): 2.21 ± 0.36 % ID/g | % ID/g (72 h) Liver (HT-29 tumor-bearing mice; Liver, 72 h): 4.44 ± 3.4 % ID/g | % ID/g (120 h) Liver (HT-29 tumor-bearing mice; Liver, 120 h): 0.55 ± 0.3 % ID/g | % ID/g (1 h) Lung (HT-29 tumor-bearing mice; Lung, 1 h): 9.85 ± 2.58 % ID/g | % ID/g (4 h) Lung (HT-29 tumor-bearing mice; Lung, 4 h): 3.88 ± 1.04 % ID/g | % ID/g (24 h) Lung (HT-29 tumor-bearing mice; Lung, 24 h): 0.62 ± 0.32 % ID/g | % ID/g (72 h) Lung (HT-29 tumor-bearing mice; Lung, 72 h): 0.5 ± 0.19 % ID/g | % ID/g (120 h) Lung (HT-29 tumor-bearing mice; Lung, 120 h): 0.12 ± 0.1 % ID/g | % ID/g (1 h) Muscle (HT-29 tumor-bearing mice; Muscle, 1 h): 1.07 ± 0.14 % ID/g | % ID/g (4 h) Muscle (HT-29 tumor-bearing mice; Muscle, 4 h): 0.66 ± 0.21 % ID/g | % ID/g (24 h) Muscle (HT-29 tumor-bearing mice; Muscle, 24 h): 0.12 ± 0.04 % ID/g | % ID/g (72 h) Muscle (HT-29 tumor-bearing mice; Muscle, 72 h): 0.37 ± 0.34 % ID/g | % ID/g (120 h) Muscle (HT-29 tumor-bearing mice; Muscle, 120 h): 0.06 ± 0.02 % ID/g | % ID/g (1 h) Pancreas (HT-29 tumor-bearing mice; Pancreas, 1 h): 1.18 ± 0.61 % ID/g | % ID/g (4 h) Pancreas (HT-29 tumor-bearing mice; Pancreas, 4 h): 1.01 ± 0.71 % ID/g | % ID/g (24 h) Pancreas (HT-29 tumor-bearing mice; Pancreas, 24 h): 0.15 ± 0.06 % ID/g | % ID/g (72 h) Pancreas (HT-29 tumor-bearing mice; Pancreas, 72 h): 0.51 ± 0.5 % ID/g | % ID/g (120 h) Pancreas (HT-29 tumor-bearing mice; Pancreas, 120 h): 0.05 ± 0.02 % ID/g | % ID/g (1 h) Spleen (HT-29 tumor-bearing mice; Spleen, 1 h): 1.76 ± 0.41 % ID/g | % ID/g (4 h) Spleen (HT-29 tumor-bearing mice; Spleen, 4 h): 1.22 ± 0.16 % ID/g | % ID/g (24 h) Spleen (HT-29 tumor-bearing mice; Spleen, 24 h): 0.43 ± 0.09 % ID/g | % ID/g (72 h) Spleen (HT-29 tumor-bearing mice; Spleen, 72 h): 1.61 ± 1.35 % ID/g | % ID/g (120 h) Spleen (HT-29 tumor-bearing mice; Spleen, 120 h): 0.8 ± 0.32 % ID/g | % ID/g (1 h) Stomach (HT-29 tumor-bearing mice; Stomach, 1 h): 1.29 ± 0.31 % ID/g | % ID/g (4 h) Stomach (HT-29 tumor-bearing mice; Stomach, 4 h): 1.35 ± 0.68 % ID/g | % ID/g (24 h) Stomach (HT-29 tumor-bearing mice; Stomach, 24 h): 0.29 ± 0.11 % ID/g | % ID/g (72 h) Stomach (HT-29 tumor-bearing mice; Stomach, 72 h): 0.54 ± 0.53 % ID/g | % ID/g (120 h) Stomach (HT-29 tumor-bearing mice; Stomach, 120 h): 0.07 ± 0.01 % ID/g | % ID/g (1 h) Tumor (HT-29 tumor-bearing mice; Tumor, 1 h): 9.74 ± 2.44 % ID/g | % ID/g (4 h) Tumor (HT-29 tumor-bearing mice; Tumor, 4 h): 20.7 ± 2.21 % ID/g | % ID/g (24 h) Tumor (HT-29 tumor-bearing mice; Tumor, 24 h): 17.4 ± 4.53 % ID/g | % ID/g (72 h) Tumor (HT-29 tumor-bearing mice; Tumor, 72 h): 10.02 ± 6.15 % ID/g | % ID/g (120 h) Tumor (HT-29 tumor-bearing mice; Tumor, 120 h): 6.61 ± 1.12 % ID/g
